Measurements: patent US9657022B2, “7-OXO-1,6-diazabicyclo[3.2.1]octane derivatives and their use as antibacterial agents” (WOCKHARDT LIMITED, priority 2014, dated 2017)
Several values for one entry are separate records, joined by “and”; a condition that tells them apart may be missing. Equal values may be shown once. Read-outs that look alike come from different tables or passages of the source.

How the values were obtained:
Assay in all cases: Beta-lactamase enzyme inhibition (Nitrocefin, crude enzyme)
Format in all cases: biochemical
[1] = biological target: T1, Class A beta-lactamase SHV 18 (K. pneumoniae ATCC 700603) (Klebsiella pneumoniae, UniProt P0AD64, E235K/G234A/I4F/R39S); conditions: Class A, K. pneumoniae ATCC 700603 (SHV 18); read-out: Beta-lactamase enzyme inhibition IC50
T1 sequence (P0AD64 1-286 I4F/R39S/G234A/E235K): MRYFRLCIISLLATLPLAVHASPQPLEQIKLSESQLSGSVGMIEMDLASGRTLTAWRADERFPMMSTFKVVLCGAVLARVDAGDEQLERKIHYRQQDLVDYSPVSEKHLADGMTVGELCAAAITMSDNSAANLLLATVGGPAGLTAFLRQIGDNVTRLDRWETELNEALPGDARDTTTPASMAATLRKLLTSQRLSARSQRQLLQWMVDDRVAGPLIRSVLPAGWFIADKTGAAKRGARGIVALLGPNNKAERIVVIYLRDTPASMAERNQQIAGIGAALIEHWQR
Description: (§1) Absorbance was measured at 485 nm by UV-spectrophotometer. The IC50 was calculated by plotting absorbance against concentration through Sigmoidal dose response curve using Graph Pad software.
(§2) The enzyme inhibition was expressed as IC50.

[2] = biological target: T2, Class D beta-lactamase OXA 23 (A. baumannii NCTC 13301) (Acinetobacter baumannii, UniProt Q9L4P2); conditions: Class D, A. baumannii NCTC 13301 (OXA 23); read-out: Beta-lactamase enzyme inhibition IC50
T2 construct: preincubated mixture of crude enzyme and the compounds; endogenous in cells; host or cells: A. baumannii NCTC 13301
Description: as §1, §2

[3] = system: Class C beta-lactamase CMY/DHA (E. coli M50)
Description: as §1, §2

T2 sequence (Q9L4P2 18-273): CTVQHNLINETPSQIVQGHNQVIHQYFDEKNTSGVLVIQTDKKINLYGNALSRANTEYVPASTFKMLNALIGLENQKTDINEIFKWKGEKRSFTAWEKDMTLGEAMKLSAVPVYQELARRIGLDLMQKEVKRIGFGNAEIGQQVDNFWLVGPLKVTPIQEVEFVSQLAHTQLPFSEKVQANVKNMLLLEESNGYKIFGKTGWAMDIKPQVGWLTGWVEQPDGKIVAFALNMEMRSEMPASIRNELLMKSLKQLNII

## O=C(C[C@@H]1CCCN1)NNC(=O)[C@@H]1CC[C@@H]2CN1C(=O)N2OS(=O)(=O)O [Example 1, (2S,5R)-Sulfuric acid mono-{2-[N′-(2-(S)-pyrrolidin-2-yl-acetyl)-hydrazinocarbonyl]-7-oxo-1,6-diaza-bicyclo[3.2.1]oct-6-yl}ester]
[1]
  IC50: 80 nM and 81 nM
[2]
  IC50: 2390 nM
[3]
  IC50: 60 nM
[3]; listed as Compound of Example 1
  IC50: 65 nM
